Columns and labels:
[1] = system: Carrageenan rat paw oedema; test: Test 1: Carrageenan rat paw oedema (PO-R); type: in vivo, rat (male CFHB); details: 3 h; for inhibition in vivo at 50 mg/kg: 50 mg/kg p.o.; for inhibition in vivo at 10 mg/kg: 10 mg/kg p.o.
Method: Carrageenan rat paw oedema (PO-R)
One hour after the oral administration of the test compounds or control vehicle to groups of 6 to 12 male CFHB rats, weighing 160-180 g, 1 mg of carrageenan dissolved in 0.2 ml of saline was injected into the right hind foot pad. Contralateral paws received control saline injections. Paw oedema responses were assessed three hours later.
(§1) Doses are given in units of mg/kg p.o.

[2] = system: Delayed-type hypersensitivity mouse paw oedema; test: Test 2: Delayed-type hypersensitivity mouse paw oedema (DTH-M); type: in vivo, mouse (male CD-1); details: po, 24 h; for inhibition in vivo at 100 mg/kg: 100 mg/kg p.o.
Method: Delayed-type hypersensitivity mouse paw oedema (DTH-M)
Groups of 8 to 10 mice, male CD-1 weighing 25-30 g were sensitized by the subcutaneous injection of 1 mg of methylated bovine serum albumin (MBSA) in 0.2 ml volumes of saline/Freund's complete adjuvant (FCA) emulsion. Negative control groups received injections of saline/FCA emulsion. DTH paw oedema responses were assessed twenty-four hours after the right hind foot pad challenge with 0.1 mg of MBSA in 0.05 ml volumes of saline on day seven after sensitization. Contralateral paws received control saline injections. The test compounds or control vehicles were orally administered daily on days four, five, six and twice on day seven, one hour before and six hours after MBSA challenge.
as §1

[3] = system: Delayed-type hypersensitivity rat paw oedema; test: Test 3: Delayed-type hypersensitivity rat paw oedema (DTH-R)
[4] = Pharmacokinetic comparison, plasma concentrations of parent compound and active metabolite in mice; type: in vivo; details: 30 mg/kg orally
Method: A pharmacokinetic comparison was made between the compound of Example 8 in which R5 is methyl and the corresponding known compound in which R5 is hydrogen. Each compound was administered orally to mice at a dose of 30 mg/kg and plasma concentrations of the parent compound and the corresponding active metabolite were determined at various time points after administration.

[5] = Rattus norvegicus, po, 24 h, read-out: % Inhibition (Test 3, DTH-R)

SMILES | inhibition in vivo at 50 mg/kg [1] [%] | inhibition in vivo at 100 mg/kg [2] [%] | inhibition in vivo at 50 mg/kg [3, 5] [%] | inhibition in vivo at 10 mg/kg [3, 5] [%] | other results
Cc1onc(C(=O)O)c1C(=O)Nc1ccc(C#N)cc1 [Example 2, 4-[N-(4-cyanophenyl)]carbamoyl-5-methyl-3-isoxazolecarboxylic acid] | -25 | 27 | -47 |  | 
Cc1onc(C(=O)O)c1C(=O)Nc1ccc(SC(F)(F)F)cc1 [Example 7, 5-methyl-4-[N-(4-trifluoromethylthio)phenyl]carbamoyl-3-isoxazolecarboxylicacid] | 1 | 14 | 73 | 42 | 
Cc1onc(C(=O)O)c1C(=O)Nc1ccc([N+](=O)[O-])cc1 [Example 1, 5-methyl-4-[N-(4-nitrophenyl)]carbamoyl-3-isoxazolecarboxylic acid] | -2 | 41 | 28 |  | 
O=C(O)c1noc(C2CC2)c1C(=O)Nc1ccc(SC(F)(F)F)cc1 [Example 12, 5-cyclopropyl-4-[N-(4-trifluoromethylthio)phenyl]carbamoyl-3-isoxazolecarboxylic acid] |  | 36 |  | 75 | inhibition in vivo at 10 mg/kg [1]: 11%
Cc1cc(NC(=O)c2c(C(=O)O)noc2C)ccc1OC(F)(F)F [Example 8, 5-methyl-4-[N-(3-methyl-4-trifluoromethoxy)phenyl]carbamoyl-3-isoxazolecarboxylic acid] |  | 48 | 79 | 34 | inhibition in vivo at 10 mg/kg [1]: 16%; detectability of the active metabolite 24 hours after administration ([4]; plasma, 24 hours): no metabolite detectable
Cc1cc(NC(=O)c2c(C(=O)O)noc2C)ccc1C#N [Example 6, 4-[N-(4-cyano-3-methyl)phenyl]carbamoyl-5-methyl-3-isoxazolecarboxylic acid] | 5 | 5 | 25 |  | 
O=C(O)c1noc(C2CC2)c1C(=O)Nc1ccc(C(F)(F)F)cc1 [Example 9, 5-cyclopropyl-4-[N-(4-trifluoromethyl)phenyl]carbamoyl-3-isoxazolecarboxylic acid] |  | 72 | 86 | 45 | inhibition in vivo at 10 mg/kg [1]: -24%; pharmacokinetics compared with known compound in which R5 is hydrogen ([4]; effect of methyl substituent): improved pharmacokinetics
Cc1cc(NC(=O)c2c(C(=O)O)noc2C2CC2)ccc1OC(F)(F)F [Example 13, 5-cyclopropyl-4-[N-(3-methyl-4-trifluoromethoxy)phenyl]carbamoyl-3-isoxazolecarboxylic acid] |  | 52 |  | 47 | inhibition in vivo at 10 mg/kg [1]: 5%
Cc1cc(NC(=O)c2c(C(=O)O)noc2C2CC2)ccc1C(F)(F)F [Example 10, 5-cyclopropyl-4-[N-(3-methyl-4-trifluoromethyl)phenyl]carbamoyl-3-isoxazolecarboxylic acid] | 5 | 12 | 73 |  | 
Cc1cc(NC(=O)c2c(C(=O)O)noc2C)ccc1Br [Example 3, 4-[N-(4-bromo-3-methyl)phenyl]carbamoyl-5-methyl-3-isoxazolecarboxylic acid] | -10 | 35 | -4 |  | 
CCOC(=O)c1noc(C)c1C(=O)Nc1ccc(C(F)(F)F)c(C)c1 [Example 18, Ethyl 5-methyl-4-[N-(3-methyl-4-trifluoromethyl)phenyl]carbamoyl-3-isoxazolecarboxylate] | 23 | 3 | 50 |  | 
Cc1onc(C(=O)O)c1C(=O)Nc1ccc(OC(F)(F)F)cc1 [known compound, reference compound] |  |  |  |  | detectability of the active metabolite at 72 hours after administration ([4]; plasma, 72 hours): still being detectable
Cc1cc(NC(=O)c2c(C(=O)O)noc2C)ccc1Cl [Example 4, 4-[N-(4-chloro-3-methyl)phenyl]carbamoyl-5-methyl-3-isoxazolecarboxylic acid] | -10 | 24 | 6 |  | 
Cc1cc(NC(=O)c2c(C(=O)O)noc2C)ccc1C(F)(F)F [Example 5, 5-methyl-4-[N-(3-methyl-4-trifluoromethyl)phenyl]carbamoyl-3-isoxazolecarboxylic acid] | 18 | 44 | 95 | 44 | 
O=C(O)c1noc(C2CC2)c1C(=O)Nc1ccc(OC(F)(F)F)cc1 [Example 11] |  | 65 |  | 95 | inhibition in vivo at 3 mg/kg ([1]; 3 mg/kg p.o.): -2%; inhibition in vivo at 30 mg/kg ([2]; 30 mg/kg p.o.): 37%; toxicity printed in place of % Inhibition (Test 3, DTH-R) ([3]; 50 mg/kg p.o.): Toxic; inhibition in vivo at 3 mg/kg [3, 5]: 65%

From patent US5371099A, “Phenyl carboxamide isoxazoles” (Roussel-Uclaf, priority 1992, dated 1994)
